Measurements from patent publication US6436997B1, “Endogenous nitric oxide synthesis under conditions of low oxygen tension” (NitroMed, Inc., priority 1998, dated 2002).

Tests used:
rat aortic segments = assay: Relaxation of norepinephrine-contracted rat aortic segments from non-diabetic and diabetic rats; format: cell-based; conditions: for effect on acetylcholine induced relaxation of aorta segments / effect on acetylcholine induced relaxation of aortic rings: 10 μM test drug, 10 nM-10 μM ACh, normoxia; for effect on acetylcholine induced relaxation of aorta segments: diabetic rats, FIG. 10B; for effect on acetylcholine induced relaxation of aortic rings: non-diabetic rats, FIG. 10A
Experimental: Diabetes was induced in rats by the administration of a single injection of steptozotocin (60 mg/kg; i.p). Diabetic rats remained untreated for a total of 8 weeks. […] Rats were anesthetized with diethyl ether and exsanguinated. The thoracic aorta was then removed and the tissue dissected free from the surrounding periadventitial fat and connective tissue, taking precautions to avoid touching the luminal surface. The tissue was cut into 8 segments, each approximately 3-4 mm in length. Rat aortic segments were maintained at 4-6° C. Krebs-bicarbonate buffer (composition per millimolar: NaCl, 120; KCl, 5.6; MgCl2, 1.2; NaH2PO4, 1.2; dextrose, 10; NaHCO3, 25; CaCl2 2.5; pH 7.4) until used. Aortic segments were typically used between 2 and 16 hrs from extraction. […] Each aortic tissue strip was submitted to 1.5 g of resting tension. […] The aortic segments were then contracted with submaximal concentration of norepinephrine and the contraction as allowed to reach a steady state level. Once a steady state of muscle tension was reached, the tissue was exposed to various concentrations of test compounds and the relaxation responses were recorded. Relaxation responses were expressed as a percentage of total relaxation induced by a supramaximal addition of papaverine (total loss of tone) at the end of the experiment. In FIGS. 7-12, the data are expressed as mean±standard mean error.

[1] = test system: rabbit corpus cavernosum tissue; assay: Relaxation of phenylephrine-contracted corpus cavernosum tissue strips in organ chambers; format: cell-based; conditions: for effect on N-hydroxy-L-arginine induced relaxation / effect on hydroxylamine induced relaxation: 20% O2; for effect on hydroxylamine induced relaxation: increasing hydroxylamine
Experimental: (§1) Rabbits were euthanized with an overdose of intravenous pentobarbital (60 mg/kg) and immediately exsanguinated. The entire penis was then removed and the corpus cavernosum tissue dissected free from the surrounding tunica albuginea and cut into strgips (3×3×7 mm). Corpus cavernosum tissues were maintained at 4-6° C. in M-400 solution (composition per 100 ml: mannitol, 4.19 g; KH2PO4, 0.205 g; K2HPO4.3H2O, 0.97 g; KCl, 0.112 g; NaHCO3, 0.084 g) until used. Corpus cavernosum tissues were typically used between 2 and 16 hrs from extraction.
Corpus cavernosum tissue was prepared as described in Example 1. For experimentation to measure relaxation of the tissue under various conditions, the corpus cavernosum tissues were then suspended in 10 ml organ chambers and bathed in a physiological salt solution, maintained at 37° C. and aerated with 5% CO2/95% air, pH 7.4. Each corpus cavernosum tissue strip was incrementally stretched to optimal isometric tension as determined by the maximal contractile response to 1 μM phenylephrine. After several exchanges of fresh physiological solution, the media was bubbled with gas mixtures containing 5% CO2, the indicated amount of oxygen (between 0% and 20%) and the remaining percentage was N2, for thirty minutes. Corpus cavernosum tissues were then contracted with a submaximal concentration of phenylephrine, and the contraction was allowed to reach a steady state level. Once a steady state of muscle tension was reached, the tissue was exposed to various concentrations of test compounds, and the relaxation responses were recorded. Relaxation responses were expressed as a percentage of total relaxation induced by a supramaximal addition of papaverine (total loss of tone) at the end of the experiment. The data in FIGS. 3-6 are expressed as mean±standard mean error

[2] = test system: rabbit corpus cavernosum tissue; assay: cGMP production (basal and acetylcholine stimulated) by corpus cavernosum tissue strips, ELISA; format: cell-based; conditions: for cGMP concentration in acetylcholine stimulated tissue compared to basal values (ACh alone): 300 μM test drug + 30 μM ACh, under normoxia (20% O2) and hypoxia (0% O2), FIGS. 2A/2B; for basal cGMP production: normoxic (20% O2), vs vehicle control, FIG. 1
Experimental: as §1
Measurement of cyclic GMP in corpus cavernosal tissues was carried out as follows. Corpus cavernosal tissue strips were immersed in a 10 ml organ chamber containing physiological salt solution, maintained at 37° C. and aerated with 5% CO2/95% air, pH 7.4. Each strip was incrementally stretched to optimal isometric tension, as determined by maximal contractile responses to 1 μM phenylephrine ((R)-3-hydroxy-α-[(methylamino)methyl]-benzenemethanol hydrochloride). The physiological salt solution was then replaced with one bubbled with either 20% oxygen or 0% oxygen and the tissues were then given 0.5 μM phenylephrine, 30 μM Zaprinast and 100 μM IBMX (3-isobutyl-1-methylxanthine, […]) and incubated for 15 minutes; after which time each tissue was incubated with the test drug (or control drug) at various concentrations or with vehicle (the buffer in which the drugs are delivered). Tissues were incubated for another 5 minutes then immediately frozen in liquid nitrogen and stored at −80° C. until extraction for cyclic nucleotide assay. Tissues were extracted by homogenization in 6% trichloroacetic acid followed by ether (H2O-saturated) extraction and lyophilization. cGMP levels were determined by ELISA using a kit from Cayman Chemical Co. (Ann Arbor, Mich.).
Protein concentration in the corpus cavernosum tissue was determined using the Bio-Rad Protein Assay Kit microtiter plate assay procedure (Bio-Rad, Hercules, Calif.) with bovine serum albumin as the standard.

[3] = test system: left hindlimb of autoperfused non-diabetic or diabetic rats; assay: Vasoactive response (hindlimb perfusion pressure) of anesthetized autoperfused rats; format: in vivo, rat; conditions: bolus infusion 0.1-10 mg/kg, pressure elevated by norepinephrine 2 μg/min/kg, FIGS. 12A/12B
Experimental: The left hindlimb of the anesthetized rats were perfused through the femoral artery at a constant rate of 3.3 ml/min/kg with blood from the carotid artery by means of a peristaltic pump. The vasoactive response induced by the bolus infusion of increasing concentrations of L-arginine or N-hydroxy-L-arginine into the left hindlimb of autoperfused non-diabetic or diabetic rats was determined by measuring the change in the perfusion pressure, which was previously elevated by a norepinephrine constant infusion (2 μg/min/kg).

[4] = estimated; cited from earlier work
[5] = 0.1 mM L-NNA or 0.02 mM ODQ, increasing N-hydroxy-L-arginine, FIG. 4A
[6] = 0.1 mM L-NNA or 0.02 mM ODQ, FIG. 4B

COC(=O)[C@@H](N)CCCNC(=N)N[N+](=O)[O-] [L-NAME, N^G-nitro-L-arginine methyl ester]
effect on N-hydroxy-L-arginine induced relaxation of aorta segments (rat aortic segments; 10 μM inhibitor, normoxic, non-diabetic and diabetic rats, FIGS. 9A/9B): significantly decreased the measured relaxation

N=C(NCCC[C@H](N)C(=O)O)N[N+](=O)[O-] [L-NNA, N^G-nitro-L-arginine]
effect on N-hydroxy-L-arginine induced relaxation ([1]; 0.1 mM L-NNA added together with 0.1 mM miconazole, FIG. 3): does decrease the effectiveness of N-hydroxy-L-arginine to relax the tissue | effect on N-hydroxy-L-arginine induced relaxation [1, 5]: significantly decreased the measured relaxation | effect on hydroxylamine induced relaxation [1, 6]: had no effect

N=C(N)NCCC[C@H](N)C(=O)O [L-arginine]
cGMP concentration in acetylcholine stimulated tissue compared to basal values (ACh alone) [2]: not effective to statistically increase the concentration of cGMP | basal cGMP production ([2]; 300 μM test drug): stimulated cGMP production approximately equally | effect on acetylcholine induced relaxation of aorta segments (rat aortic segments): resulted in a decreased relaxation | effect on acetylcholine induced relaxation of aortic rings (rat aortic segments): do not effect the relaxation of aortic rings | change in hindlimb perfusion pressure, non-diabetic versus diabetic rats [3]: the pressure change was greater for the non-diabetic rats compared to diabetic rats | tissue relaxation at 1 mM ([1]; oxygen concentrations of 0%, 1%, 2% and 5% (data not shown)): no measurable effect on tissue relaxation

NC(=NCCC[C@H](N)C(=O)O)NO [N-hydroxy-L-arginine, N^G-hydroxy-L-arginine]
basal cGMP production ([2]; 30 μM test drug): stimulated cGMP production approximately equally | cGMP concentration in acetylcholine stimulated tissue compared to basal values (ACh alone) [2]: statistically significant increase in the concentration of cGMP | basal cGMP production ([2]; 300 μM test drug): effective to stimulate a higher concentration of cGMP production | induced relaxation, diabetic versus non-diabetic aortic segments (rat aortic segments; 1 μM, 95% O2, FIG. 8): more effective in inducing the relaxation of aortic segments obtained from diabetic rats | effect on acetylcholine induced relaxation of aorta segments (rat aortic segments): increased the relaxation | effect on acetylcholine induced relaxation of aortic rings (rat aortic segments): do not effect the relaxation of aortic rings | induced relaxation of aortic segments compared with L-arginine (rat aortic segments; 95% O2, 100 nM-100 μM, non-diabetic and diabetic rats, FIGS. 7A/7B): more effective in inducing relaxation in both non-diabetic and diabetic rats | change in hindlimb perfusion pressure, non-diabetic versus diabetic rats [3]: no difference in the perfusion pressure | tissue relaxation at 1 mM ([1]; all oxygen concentrations (0%, 1%, 2%, 5%, 20%), FIG. 6): significant relaxation of the tissue

O=c1onc2cnc3ccccc3n12 [ODQ, 1H-[1,2,4]oxadiazolo[4,3,a]quinoxalin-1-one]
effect on N-hydroxy-L-arginine induced relaxation [1, 5]: significantly decreased the measured relaxation | effect on hydroxylamine induced relaxation [1, 6]: significantly decreased the relaxation

NO [hydroxylamine]
relaxation of corpus cavernosum tissue by the substance itself ([1]; 20% O2, 1 nM to 1000 μM, FIG. 4B): induces the relaxation of the tissue

Clc1ccc(COC(Cn2ccnc2)c2ccc(Cl)cc2Cl)c(Cl)c1 (stereo not drawn) [miconazole]
effect on N-hydroxy-L-arginine induced relaxation ([1]; 0.1 mM miconazole, increasing N-hydroxy-L-arginine 1-1000 μM, FIG. 3): does not significantly effect the relaxation of the tissues

[N]=O [nitric oxide]
half-life in biological tissues [4]: less than one second
